Reference: ChEMBL document CHEMBL6083206, “SLL-1A-16 suppresses proliferation and induces autophagy in non-small-cell lung cancer cells via the AKT/mTOR signaling pathway” (RSC Med Chem, 2024)
Activity calls are given as the source filed them. The calls are words filed in the database; no cut-off is given here.

Tests used:
[1] = test system: A549; assay: Inhibition of Akt/mTOR signalling pathway in human A549 cells assessed as decrease in phosphorylated PRAS40 expression by Western blot analysis; format: cell-based; settings: dose 10-30 µM
[2] = test system: NCI-H460; assay: Inhibition of Akt/mTOR signaling pathway in human NCI-H460 cells assessed as decrease in phosphorylated PRAS40 expression in presence of temsirolimus by Western blot analysis; format: cell-based
[3] = test system: NCI-H460; assay: Induction of autophagy in human NCI-H460 cells assessed as increase in fluorescence intensity of anti-LC3 incubated for 48 hrs by immunofluorescence staining based analysis; format: functional, cell-based; settings: dose 10-30 µM
[4] = test system: BEAS-2B; assay: Cytotoxicity against human BEAS-2B cells assessed as inhibition of cell viability at 3 to 300 uM incubated for 48 hrs by CCK8 assay; format: toxicity, cell-based; settings: dose 3-300 µM
[5] = test system: A549; assay: Induction of apoptosis in human A549 cells assessed as necrotic cells at 10 uM incubated for 24 hrs by Annexin V-FITC/PI staining based flow cytometric analysis (reference value: 0.97 %); format: functional
[6] = test system: NCI-H460; assay: Induction of apoptosis in human NCI-H460 cells assessed as upregulation of cleaved caspase 3 expression at 10 to 30 uM by Western blot analysis; format: functional, cell-based; settings: dose 10-30 µM
[7] = test system: A549; assay: Inhibition of Akt/mTOR signaling pathway in human A549 cells assessed as decrease in mTOR expression in presence of temsirolimus by Western blot analysis; format: cell-based
[8] = test system: A549; assay: Induction of apoptosis in human A549 cells assessed as decrease in Bcl2 expression at 10 to 30 uM by Western blot analysis; format: functional, cell-based; settings: dose 10-30 µM
[9] = test system: NCI-H460; assay: Induction of apoptosis in human NCI-H460 cells assessed as late apoptotic cells at 10 uM incubated for 24 hrs by Annexin V-FITC/PI staining based flow cytometric analysis (reference value: 4.15 %); format: functional
[10] = test system: NCI-H460; assay: Induction of apoptosis in human NCI-H460 cells assessed as upregulation of Bax expression at 10 to 30 uM by Western blot analysis; format: functional, cell-based; settings: dose 10-30 µM
[11] = test system: A549; assay: Induction of apoptosis in human A549 cells assessed as upregulation of Bax expression at 10 to 30 uM by Western blot analysis; format: functional, cell-based; settings: dose 10-30 µM
[12] = test system: A549; assay: Inhibition of Akt/mTOR signaling pathway in human A549 cells assessed as decrease in phosphorylated PRAS40 expression in presence of temsirolimus by Western blot analysis; format: cell-based
[13] = test system: A549; assay: Inhibition of colony formation in human A549 cells at 10 to 30 uM incubated for 24 hrs by giemsa staining based analysis; format: functional, cell-based; settings: dose 10-30 µM
[14] = test system: NCI-H460; assay: Induction of apoptosis in human NCI-H460 cells assessed as decrease in Bcl2 expression at 10 to 30 uM by Western blot analysis; format: functional, cell-based; settings: dose 10-30 µM
[15] = test system: NCI-H460; assay: Inhibition of Akt/mTOR signalling pathway in human NCI-H460 cells assessed as decrease in phosphorylated PRAS40 expression by Western blot analysis; format: cell-based; settings: dose 10-30 µM
[16] = test system: NCI-H460; assay: Inhibition of Akt/mTOR signalling pathway in human NCI-H460 cells assessed as decrease in phosphorylated Akt expression by Western blot analysis; format: cell-based; settings: dose 10-30 µM
[17] = test system: NCI-H460; assay: Induction of apoptosis in human NCI-H460 cells assessed as early apoptotic cells at 30 uM incubated for 24 hrs by Annexin V-FITC/PI staining based flow cytometric analysis (reference value: 3.22 %); format: functional
[18] = test system: A549; assay: Cell cycle arrest in human A549 cells assessed as accumulation of cells at G1 phase at 30 uM incubated for 24 hrs by PI staining based flow cytometric analysis (reference value: 56.42 +/- 1.36 %); format: functional
[19] = test system: A549; assay: Antiproliferative activity against human A549 cells assessed as reduction in cell viability incubated for 48 hrs by CCK8 assay; format: functional, cell-based; settings: A549, 48 h
[20] = test system: Gefitinib-resistant A549/G cell; assay: Antiproliferative activity against human Gefitinib-resistant A549/G cell assessed as inhibition of cell proliferation in presence of gefitinib; format: functional, cell-based
[21] = test system: A549; assay: Antitumor activity against human A549 cells xenografted in Balb/c nude mouse assessed as reduction in tumor growth rate at 7.5 to 15 mg/kg, ip administered for 14 days; format: functional, organism-based; settings: dose 7.5-15 mg/kg, time 14.0 day
[22] = Toxicity in Balb/c nude mouse xenografted with human A549 cells assessed as reduction in body weight at 7.5 to 15 mg/kg, ip administered for 14 days; format: organism-based; settings: in vivo, 336 h, dose 7.5-15 mg/kg, time 14 day
[23] = test system: A549; assay: Induction of apoptosis in human A549 cells assessed as upregulation of cleaved caspase 3 expression at 10 to 30 uM by Western blot analysis; format: functional, cell-based; settings: dose 10-30 µM
[24] = test system: NCI-H460; assay: Induction of autophagy in human NCI-H460 cells assessed as increase in LC3-II expression at 10 to 30 uM incubated for 24 hrs by Western blot analysis; format: functional, cell-based; settings: dose 10-30 µM
[25] = test system: A549; assay: Inhibition of Akt/mTOR signalling pathway in human A549 cells assessed as decrease in phosphorylated Akt expression by Western blot analysis; format: cell-based; settings: dose 10-30 µM
[26] = test system: NCI-H460; assay: Inhibition of Akt/mTOR signaling pathway in human NCI-H460 cells assessed as decrease in mTOR expression in presence of temsirolimus by Western blot analysis; format: cell-based
[27] = test system: A549; assay: Inhibition of Akt/mTOR signalling pathway in human A549 cells assessed as decrease in phosphorylated P70 S6K expression by Western blot analysis; format: cell-based; settings: dose 10-30 µM
[28] = test system: NCI-H460; assay: Inhibition of Akt/mTOR signalling pathway in human NCI-H460 cells assessed as decrease in mTOR expression by Western blot analysis; format: cell-based; settings: dose 10-30 µM
[29] = test system: A549; assay: Inhibition of Akt/mTOR signalling pathway in human A549 cells assessed as decrease in phosphorylated 4EBP1 expression by Western blot analysis; format: cell-based; settings: dose 10-30 µM
[30] = test system: A549; assay: Induction of apoptosis in human A549 cells assessed as early apoptotic cells at 30 uM incubated for 24 hrs by Annexin V-FITC/PI staining based flow cytometric analysis (reference value: 0.44 %); format: functional
[31] = test system: A549; assay: Induction of apoptosis in human A549 cells assessed as late apoptotic cells at 30 uM incubated for 24 hrs by Annexin V-FITC/PI staining based flow cytometric analysis (reference value: 2.29 %); format: functional

N#C[Se]CCCNC(=O)c1cccnc1
inhibition [1]: Dose-dependent-effect; Inhibitory Ability Of Compound Is Comparable To Temsirolimus
inhibition [2]: Active
Activity [3]: Dose-dependent-effect
Activity [4]: Toxic
Activity [5]: 3.03%
Activity [6]: Active
inhibition [7]: Active
Activity [8]: Active
Activity [9]: 8.98%
Activity [10]: Active
Activity [11]: Active
inhibition [12]: Active
inhibition [13]: Active
Activity [14]: Active
inhibition [15]: Dose-dependent-effect; Inhibitory Ability Of Compound Is Comparable To Temsirolimus
inhibition [16]: Dose-dependent-effect; Inhibitory Ability Of Compound Is Comparable To Temsirolimus
Activity [17]: 6.3%
Activity [18]: 78.51%
IC50 [19]: 15.4 µM
Activity [20]: Active
Activity [21]: Active; Comparable To 25 Mg/Kg Of Gemcitabine Hydrochloride
Activity [22]: Non-toxic
Activity [23]: Active
Activity [24]: Active
inhibition [25]: Dose-dependent-effect; Inhibitory Ability Of Compound Is Comparable To Temsirolimus
inhibition [26]: Active
inhibition [27]: Dose-dependent-effect; Inhibitory Ability Of Compound Is Comparable To Temsirolimus
inhibition [28]: Dose-dependent-effect; Inhibitory Ability Of Compound Is Comparable To Temsirolimus
inhibition [29]: Dose-dependent-effect; Inhibitory Ability Of Compound Is Comparable To Temsirolimus
Activity [30]: 4.58%
Activity [31]: 14.41%
